Consider 3 compounds from patent US6720450B2, “Pesticidal activity of functionalized cyclopropanes” (North Carolina State University, priority 2001, dated 2004).

Structures are written as SMILES.

This test has as its system mosquito larvae. Kind of test: Mosquito larval mortality bioassay in microtiter plates. It counts as in vivo. As to conditions: 72 h; larval mortality followed for three days; 160 μL sterile water, 1-4 μL test compound in dimethylsulfoxide, 10 μL 2% Brewer's yeast. As to the method:
The term “LC50” also is used hereinafter and refers to the concentration of a pest-controlling compound of the invention in the ambient environment of the pest species that is able to cause a 50% mortality of such species. For example, in tests described hereinafter, wherein compounds of the invention are tested for pesticidal efficacy against mosquito larvae, the compounds are present in a state of dynamic equilibrium in the aqueous environment containing the yeast and are taken up by the filter-feeding mosquito larvae during their feeding on the yeast.
Mosquito larval mortality was followed for three days in microtiter plates containing 160 μL sterile water, 1-4 μL of the test compound dissolved in dimethylsulfoxide, and 10 μL of 2% Brewer's yeast.
Mosquito larval mortality was followed for three days in microtiter plates containing 160 μL sterile water, 1-4 μL of the test compound dissolved in dimethylsulfoxide, and 10 μL of 2% Brewer's yeast. Controls were run under the same conditions without the test compounds. Larval mortality in the controls was 3% for 1-3 μL dimethylsulfoxide, and up to 20% for 4 μL dimethylsulfoxide.

Usually LC50 stands for the concentration that kills 50% of the test population. The low end stands for greater toxicity, the high end for lower toxicity. As for `O=C(O)CCC1CC1CCC1CCCCC1` (stereo not drawn) [IBI-216, 7-Cyclohexyl-trans-(4,5-methano)heptanoic acid], the LC50 is 300 ± 10 µM.

Regarding `O=C(O)CCC1CC1CCc1ccccc1` (stereo not drawn) [IBI-215, 7-Phenyl-trans-(4,5-methano)heptanoic acid], the LC50 was 180 ± 30 µM.

On to `O=C(O)CCC1CC1CCc1ccc(-c2ccccc2)cc1` (stereo not drawn) [IBI-217, 7-(4-Phenyl)phenyl-trans-(4,5-methano)heptanoic acid], for which the LC50 was determined as 130 ± 40 µM.
